Data from patent publication US20050142581A1, “Microrna as ligands and target molecules” (priority 2003, published 2005).
Oligonucleotides are written 5' to 3', each unit as a sugar letter and its base; * is a phosphorothioate linkage, no mark a phosphodiester; rarer units and linkages stand in square brackets, end groups in braces. Plain capitals give the bases only. e = 2'-O-(2-methoxyethyl) (MOE); [5mC] = 5-methylcytosine; d = 2'-deoxy (DNA)

Tested on: human CD40 mRNA
Test: Inhibition of CD40 mRNA levels by oligonucleotides (real-time RT-PCR)
Assay type: cell-based
Parameters: concentration or dose not given beside the values
Details: 2'-MOE gapmers, 18 nucleotides, phosphorothioate throughout; averaged from three experiments
Description: When cells reach about 80% confluency, they are treated with oligonucleotide. For cells grown in 96-well plates, wells are washed once with 200 μl Opti-MEM-1 reduced-serum medium (Life Technologies) and then treated with 130 μl of Opti-MEM-1 containing 3.75 μg/ml LIPOFECTIN (Life Technologies) and the desired oligonucleotide at a final concentration of 150 nM. After 4 hours of treatment, the medium was replaced with fresh medium. Cells were harvested 16 hours after oligonucleotide treatment.
Poly(A)+ mRNA was isolated according to Miura et al. (Clin. Chem., 1996, 42, 1758). Briefly, for cells grown on 96-well plates, growth medium was removed from the cells and each well was washed with 200 ul cold PBS. 60 ul lysis buffer (10 mM Tris-HCl, pH 7.6, 1 mM EDTA, 0.5 M NaCl, 0.5% NP-40, 20 mM vanadyl-ribonucleoside complex) was added to each well, the plate was gently agitated and then incubated at room temperature for five minutes. 55 ul of lysate was transferred to Oligo d(T) coated 96 well plates (AGCT Inc., Irvine, Calif.). Plates were incubated for 60 minutes at room temperature, washed 3 times with 200 ul of wash buffer (10 mM Tris-HCl pH 7.6, 1 mM EDTA, 0.3 M NaCl). After the final wash, the plate was blotted on paper towels to remove excess wash buffer and then air-dried for 5 minutes. 60 ul of elution buffer (5 mM Tris-HCl pH 7.6), preheated to 70° C. was added to each well, the plate was incubated on a 90° hot plate for 5 minutes, and the eluate then transferred to a fresh 96 well plate. Cells grown on 100 mm or other standard plates may be treated similarly, using appropriate volumes of all solutions.
Quantitation of CD40 mRNA levels was determined by real-time PCR (RT-PCR) using the ABI PRISM 7700 Sequence Detection System (PE-Applied Biosystems, Foster City, Calif.) according to manufacturer's instructions. This is a closed-tube, non-gel-based, fluorescence detection system which allows high-throughput quantitation of polymerase chain reaction (PCR) products in real-time.
As opposed to standard PCR, in which amplification products are quantitated after the PCR is completed, products in RT-PCR are quantitated as they accumulate. This is accomplished by including in the PCR reaction an oligonucleotide probe that anneals specifically between the forward and reverse PCR primers, and contains two fluorescent dyes. A reporter dye (e.g., JOE or FAM, PE-Applied Biosystems, Foster City, Calif.) is attached to the 5′ end of the probe and a quencher dye (e.g., TAMRA, PE-Applied Biosystems, Foster City, Calif.) is attached to the 3′ end of the probe. When the probe and dyes are intact, reporter dye emission is quenched by the proximity of the 3′ quencher dye. During amplification, annealing of the probe to the target sequence creates a substrate that can be cleaved by the 5′-exonuclease activity of Taq polymerase.
With each cycle, additional reporter dye molecules are cleaved from their respective probes, and the fluorescence intensity is monitored at regular (six-second) intervals by laser optics built into the ABI PRISM 7700 Sequence Detection System. In each assay, a series of parallel reactions containing serial dilutions of mRNA from untreated control samples generates a standard curve that is used to quantitate the percent inhibition after antisense oligonucleotide treatment of test samples.
RT-PCR reagents were obtained from PE-Applied Biosystems, Foster City, Calif. RT-PCR reactions were carried out by adding 25 ul PCR cocktail (1× Taqman buffer A, 5.5 mM MgCl2, 300 uM each of dATP, dCTP and dGTP, 600 uM of dUTP, 100 nM each of forward primer, reverse primer, and probe, 20 U RNAse inhibitor, 1.25 units AmpliTaq Gold, and 12.5 U MuLV reverse transcriptase) to 96 well plates containing 25 ul poly(A) mRNA solution. […]

Substance | % Inhibition (Inhibition of CD40 mRNA Levels by Chimeric Phosphorothioate Oligonucleotides)
19211 (DNA e[5mC]*e[5mC]*eA*eG*dG*dC*dG*dG*dC*dA*dG*dG*dA*dC*e[5mC]*eA*e[5mC]*eT; antisense) [compound 19211] | 75.71%
19212 (DNA eG*eA*e[5mC]*e[5mC]*dA*dG*dG*dC*dG*dG*dC*dA*dG*dG*eA*e[5mC]*e[5mC]*eA; antisense) [compound 19212] | 77.23%
19213 (DNA eA*eG*eG*eT*dG*dA*dG*dA*dC*dC*dA*dG*dG*dC*eG*eG*e[5mC]*eA; antisense) [compound 19213] | 80.82%
19214 (DNA e[5mC]*eA*eG*eA*dG*dG*dC*dA*dG*dA*dC*dG*dA*dA*e[5mC]*e[5mC]*eA*eT; antisense) [compound 19214] | 23.68%
19215 (DNA eG*e[5mC]*eA*eG*dA*dG*dG*dC*dA*dG*dA*dC*dG*dA*eA*e[5mC]*e[5mC]*eA; antisense) [compound 19215] | 45.97%
19216 (DNA eG*e[5mC]*eA*eA*dG*dC*dA*dG*dC*dC*dC*dC*dA*dG*eA*eG*eG*eA; antisense) [compound 19216] | 65.80%
19217 (DNA eG*eG*eT*e[5mC]*dA*dG*dC*dA*dA*dG*dC*dA*dG*dC*e[5mC]*e[5mC]*e[5mC]*eA; antisense) [compound 19217] | 74.73%
19218 (DNA eG*eA*e[5mC]*eA*dG*dC*dG*dG*dT*dC*dA*dG*dC*dA*eA*eG*e[5mC]*eA; antisense) [compound 19218] | 67.21%
19219 (DNA eG*eA*eT*eG*dG*dA*dC*dA*dG*dC*dG*dG*dT*dC*eA*eG*e[5mC]*eA; antisense) [compound 19219] | 65.14%
19220 (DNA eT*e[5mC]*eT*eG*dG*dA*dT*dG*dG*dA*dC*dA*dG*dC*eG*eG*eT*e[5mC]; antisense) [compound 19220] | 78.71%
19221 (antisense eG*eG*eT*eG*dG*dT*dT*dC*dT*dG*dG*dA*dT*dG*eG*eA*e[5mC]*eA) [compound 19221] | 81.33%
19222 (antisense eG*eT*eG*eG*dG*dT*dG*dG*dT*dT*dC*dT*dG*dG*eA*eT*eG*eG) [compound 19222] | 57.79%
19223 (antisense eG*e[5mC]*eA*eG*dT*dG*dG*dG*dT*dG*dG*dT*dT*dC*eT*eG*eG*eA) [compound 19223] | 73.70%
19224 (antisense e[5mC]*eA*e[5mC]*eA*dA*dA*dG*dA*dA*dC*dA*dG*dC*dA*e[5mC]*eT*eG*eA) [compound 19224] | 40.25%
19225 (antisense e[5mC]*eT*eG*eG*dC*dA*dC*dA*dA*dA*dG*dA*dA*dC*eA*eG*e[5mC]*eA) [compound 19225] | 60.11%
19226 (antisense eT*e[5mC]*e[5mC]*eT*dG*dG*dC*dT*dG*dG*dC*dA*dC*dA*eA*eA*eG*eA) [compound 19226] | 10.18%
19227 (antisense e[5mC]*eT*eG*eT*dC*dC*dT*dG*dG*dC*dT*dG*dG*dC*eA*e[5mC]*eA*eA) [compound 19227] | 24.37%
19228 (antisense e[5mC]*eT*e[5mC]*eA*dC*dC*dA*dG*dT*dT*dT*dC*dT*dG*eT*e[5mC]*e[5mC]*eT) [compound 19228] | 22.30%
19229 (antisense eT*e[5mC]*eA*e[5mC]*dT*dC*dA*dC*dC*dA*dG*dT*dT*dT*e[5mC]*eT*eG*eT) [compound 19229] | 40.64%
19230 (antisense eG*eT*eG*e[5mC]*dA*dG*dT*dC*dA*dC*dT*dC*dA*dC*e[5mC]*eA*eG*eT) [compound 19230] | 82.04%
19231 (antisense eA*e[5mC]*eT*e[5mC]*dT*dG*dT*dG*dC*dA*dG*dT*dC*dA*e[5mC]*eT*e[5mC]*eA) [compound 19231] | 37.59%
19232 (antisense e[5mC]*eA*eG*eT*dG*dA*dA*dC*dT*dC*dT*dG*dT*dG*e[5mC]*eA*eG*eT) [compound 19232] | 40.26%
19233 (antisense eA*eT*eT*e[5mC]*dC*dG*dT*dT*dT*dC*dA*dG*dT*dG*eA*eA*e[5mC]*eT) [compound 19233] | 56.03%
19234 (antisense eG*eA*eA*eG*dG*dC*dA*dT*dT*dC*dC*dG*dT*dT*eT*e[5mC]*eA*eG) [compound 19234] | 32.21%
19235 (antisense eT*eT*e[5mC]*eA*dC*dC*dG*dC*dA*dA*dG*dG*dA*dA*eG*eG*e[5mC]*eA) [compound 19235] | 61.03%
19236 (antisense e[5mC]*eT*e[5mC]*eT*dG*dT*dT*dC*dC*dA*dG*dG*dT*dG*eT*e[5mC]*eT*eA) [compound 19236] | 62.19%
19237 (antisense e[5mC]*eT*eG*eG*dT*dG*dG*dC*dA*dG*dT*dG*dT*dG*eT*e[5mC]*eT*e[5mC]) [compound 19237] | 70.32%

Same assay, conditions: oligodeoxynucleotides with phosphorothioate backbones throughout; averages from three experiments

Substance | % INHIB. (Inhibition of CD40 mRNA Levels by Phosphorothioate Oligodeoxynucleotides)
18699 (DNA dT*dG*dG*dC*dA*dT*dC*dC*dA*dT*dG*dT*dA*dA*dA*dG*dT*dC; antisense) [compound 18699] | 0.00%
18700 (DNA dC*dG*dG*dT*dT*dG*dG*dC*dA*dT*dC*dC*dA*dT*dG*dT*dA*dA; antisense) [compound 18700] | 0.00%
18701 (DNA dC*dT*dC*dT*dT*dT*dG*dC*dC*dA*dT*dC*dC*dT*dC*dC*dT*dG; antisense) [compound 18701] | 4.38%
18702 (DNA dC*dT*dG*dT*dC*dT*dC*dT*dC*dC*dT*dG*dC*dA*dC*dT*dG*dA; antisense) [compound 18702] | 0.00%
18703 (DNA dG*dG*dT*dG*dC*dA*dG*dC*dC*dT*dC*dA*dC*dT*dG*dT*dC*dT; antisense) [compound 18703] | 0.00%
18704 (DNA dA*dA*dC*dT*dG*dC*dC*dT*dG*dT*dT*dT*dG*dC*dC*dC*dA*dC; antisense) [compound 18704] | 33.89%
18705 (DNA dC*dT*dT*dC*dT*dG*dC*dC*dT*dG*dC*dA*dC*dC*dC*dC*dT*dG; antisense) [compound 18705] | 0.00%
18706 (DNA dA*dC*dT*dG*dA*dC*dT*dG*dG*dG*dC*dA*dT*dA*dG*dC*dT*dC; antisense) [compound 18706] | 0.00%
